In patent US11173145B2, “Compounds useful as inhibitors of indoleamine 2,3-dioxygenase and/or tryptophan dioxygenase” (Board of Regents, The University of Texas System, priority 2017, dated 2021) one finds IC50 data, which are given here for 28 molecules.

Molecules are shown by their SMILES. Bounds are passed on as bounds.

The IC50 is the point on the concentration scale where inhibition reaches its midpoint.

The target of the assay is T1, IDO1 (Homo sapiens, UniProt P14902).
T1 construct: endogenous in cells; host or cells: HeLa cells (ATCC), IFNgamma-induced
T1 sequence (P14902 whole entry): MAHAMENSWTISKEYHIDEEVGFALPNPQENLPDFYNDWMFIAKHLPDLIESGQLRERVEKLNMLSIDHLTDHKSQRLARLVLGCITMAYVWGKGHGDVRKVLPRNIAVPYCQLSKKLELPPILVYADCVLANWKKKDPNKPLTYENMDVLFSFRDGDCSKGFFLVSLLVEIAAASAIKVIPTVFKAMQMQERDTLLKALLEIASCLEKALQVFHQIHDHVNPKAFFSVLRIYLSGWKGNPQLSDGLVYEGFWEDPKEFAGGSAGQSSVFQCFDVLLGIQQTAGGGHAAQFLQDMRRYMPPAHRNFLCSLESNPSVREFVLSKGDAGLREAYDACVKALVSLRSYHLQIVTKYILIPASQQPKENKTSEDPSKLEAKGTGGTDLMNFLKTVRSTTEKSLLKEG
Put plainly: IDO1 cell-based assay (HeLa cells, IFNgamma-induced, N-formylkynurenine/L-tryptophan by RFMS). As to conditions: 10 ng/mL IFNgamma, 24 hours. Put shortly:
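N-formylkynurenine and tryptophan peak areas in media measured by RFMS (C18, isocratic, d-Trp standard), giving IC50 values by regression. Source: HeLa cells incubated 24 h with IFNgamma (10 ng/mL) plus test compound at 0.5% DMSO; parallel CellTiter-Glo viability read.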

On to `CC[C@@H](NC(=O)c1ccc(C#N)cc1)[C@H]1[C@@H]2C[C@@H](n3c(C)nc4ccc(Cl)cc43)C[C@@H]21` [Compound 294, N-((R)-1-((1R,3S,5S,6r)-3-(6-chloro-2-methyl-1H-benzo[d]imidazol-1-yl)bicyclo[3.1.0]hexan-6-yl)propyl)-4-cyanobenzamide], for which the half-maximal inhibitory concentration (IC50) is < 200 nM.

Molecule `CC[C@@H](NC(=O)c1ccc(C#N)cc1)[C@H]1[C@@H]2C[C@@H](n3cc(C4CCOC4)nn3)C[C@@H]21` (stereo partly drawn) [Compound 295, 4-cyano-N-((1R)-1-((1R,3S,5S,6r)-3-(4-(tetrahydrofuran-3-yl)-1H-1,2,3-triazol-1-yl)bicyclo[3.1.0]hexan-6-yl)propyl)benzamide] came in with an IC50 of 200 to 2000 nM.

As for `C[C@@H](NC(=O)c1ccc(C#N)cc1)[C@H]1[C@@H]2C[C@H](O)C[C@@H]21` [Compound 296, 4-cyano-N-((R)-1-((1R,3R,5S,6r)-3-hydroxybicyclo[3.1.0]hexan-6-yl)ethyl)benzamide], the IC50 is > 5000 nM.

With `C[C@@H](NC(=O)c1ccc(C#N)cc1)[C@H]1[C@@H]2C[C@@H](O)C[C@@H]21` [Compound 297, 4-cyano-N-((R)-1-((1R,3S,5S,6r)-3-hydroxybicyclo[3.1.0]hexan-6-yl)ethyl)benzamide], the IC50 was > 5000 nM.

Turning to `C[C@@H](C(=O)Nc1ccc(Cl)cc1)[C@H]1[C@@H]2C[C@@H](n3cnc4cc(F)c(F)cc43)C[C@@H]21` [Compound 298, (R)-N-(4-chlorophenyl)-2-((1R,3S,5S,6r)-3-(5,6-difluoro-1H-benzo[d]imidazol-1-yl)bicyclo[3.1.0]hexan-6-yl)propanamide], the IC50 is < 200 nM.

Turning to `C[C@H](C(=O)Nc1ccc(Cl)cc1)[C@H]1[C@@H]2C[C@@H](n3cnc4cc(F)c(F)cc43)C[C@@H]21` [Compound 299, (S)-N-(4-chlorophenyl)-2-((1R,3R,5S,6r)-3-(5,6-difluoro-1H-benzo[d]imidazol-1-yl)bicyclo[3.1.0]hexan-6-yl)propanamide], the IC50 was < 200 nM.

Turning to `CC[C@@H](NC(=O)c1ccc(C#N)cc1)[C@H]1[C@@H]2C[C@@H](n3nnc(C(=O)OC)c3C(=O)OC)C[C@@H]21` [Compound 300, dimethyl 1-((1R,3S,5S,6r)-6-((R)-1-(4-cyanobenzamido)propyl)bicyclo[3.1.0]hexan-3-yl)-1H-1,2,3-triazole-4,5-dicarboxylate], the IC50 is < 200 nM.

Consider `N#Cc1ccc(C(=O)NC[C@@H]2[C@H]3C[C@H](n4cnc5cc(F)c(F)cc54)C[C@@H]23)cc1` [Compound 302, 4-cyano-N-(((1R,3s,5S,6r)-3-(5,6-difluoro-1H-benzo[d]imidazol-1-yl)bicyclo[3.1.0]hexan-6-yl)methyl)benzamide], for which the IC50 is < 200 nM.

On to `CC[C@@H](NC(=O)c1ccc(Cl)cc1)[C@H]1[C@@H]2C[C@H](c3cncc(C4CC4)c3)C[C@@H]21` [Compound 303, 4-chloro-N-((R)-1-((1R,3R,5S,6r)-3-(5-cyclopropylpyridin-3-yl)bicyclo[3.1.0]hexan-6-yl)propyl)benzamide], for which the IC50 was < 200 nM.

In the case of `CC[C@@H](NC(=O)c1ccc(Cl)cc1)[C@H]1[C@@H]2C[C@@H](n3cc(I)cn3)C[C@@H]21` [Compound 304, 4-chloro-N-((R)-1-((1R,3S,5S,6r)-3-(4-iodo-1H-pyrazol-1-yl)bicyclo[3.1.0]hexan-6-yl)propyl)benzamide], the concentration for half-maximal inhibition (IC50) is < 200 nM.

In the case of `C=Cc1cnn([C@@H]2C[C@@H]3[C@H](C2)[C@H]3[C@@H](CC)NC(=O)c2ccc(Cl)cc2)c1` [Compound 305, 4-chloro-N-((R)-1-((1R,3S,5S,6r)-3-(4-vinyl-1H-pyrazol-1-yl)bicyclo[3.1.0]hexan-6-yl)propyl)benzamide], the IC50 is < 200 nM.

Consider `CC[C@@H](NC(=O)c1ccc(F)cc1)[C@H]1[C@@H]2C[C@@H](n3cnc4cc(F)c(F)cc43)C[C@@H]21` [Compound 306, N—((R)-1-((3S,6s)-3-(5,6-difluoro-1H-benzo[d]imidazol-1-yl)bicyclo[3.1.0]hexan-6-yl)propyl)-4-fluorobenzamide], for which the half-inhibitory concentration (IC50) was < 200 nM.

For the molecule `CC[C@@H](NC(=O)c1ccnc(C)c1)[C@H]1[C@@H]2C[C@@H](n3cnc4cc(F)c(F)cc43)C[C@@H]21` [Compound 308, N-((R)-1-((1R,3S,5S,6r)-3-(5,6-difluoro-1H-benzo[d]imidazol-1-yl)bicyclo[3.1.0]hexan-6-yl)propyl)-2-methylisonicotinamide], the IC50 was 200 to 2000 nM.

Molecule `CC[C@@H](NC(=O)c1csc(C)n1)[C@H]1[C@@H]2C[C@@H](n3cnc4cc(F)c(F)cc43)C[C@@H]21` [Compound 309, N-((R)-1-((1R,3S,5S,6r)-3-(5,6-difluoro-1H-benzo[d]imidazol-1-yl)bicyclo[3.1.0]hexan-6-yl)propyl)-2-methylthiazole-4-carboxamide] returned an IC50 of 200 to 2000 nM.

`CC[C@@H](NC(=O)c1cccc(Cl)c1)[C@H]1[C@@H]2C[C@@H](n3cnc4cc(F)c(F)cc43)C[C@@H]21` [Compound 310, 3-chloro-N-((R)-1-((1R,3S,5S,6r)-3-(5,6-difluoro-1H-benzo[d]imidazol-1-yl)bicyclo[3.1.0]hexan-6-yl)propyl)benzamide]: the IC50 was < 200 nM.

On to `CC[C@@H](NC(=O)c1ccc(C)nc1)[C@H]1[C@@H]2C[C@@H](n3cnc4cc(F)c(F)cc43)C[C@@H]21` [Compound 311, N-((R)-1-((1R,3S,5S,6r)-3-(5,6-difluoro-1H-benzo[d]imidazol-1-yl)bicyclo[3.1.0]hexan-6-yl)propyl)-6-methylnicotinamide], for which the IC50 was < 200 nM.

Consider `CC[C@@H](NC(=O)c1cccc(F)c1)[C@H]1[C@@H]2C[C@@H](n3cnc4cc(F)c(F)cc43)C[C@@H]21` [Compound 312, N-((R)-1-((1R,3S,5S,6r)-3-(5,6-difluoro-1H-benzo[d]imidazol-1-yl)bicyclo[3.1.0]hexan-6-yl)propyl)-3-fluorobenzamide], for which the IC50 was < 200 nM.

With `CC[C@@H](NC(=O)c1cccc(C#N)c1)[C@H]1[C@@H]2C[C@@H](n3cnc4cc(F)c(F)cc43)C[C@@H]21` [Compound 313, 3-cyano-N-((R)-1-((1R,3S,5S,6r)-3-(5,6-difluoro-1H-benzo[d]imidazol-1-yl)bicyclo[3.1.0]hexan-6-yl)propyl)benzamide], the IC50 was < 200 nM.

In the case of `O=C(NC[C@@H]1[C@H]2C[C@H](n3cnc4cc(F)c(F)cc43)C[C@@H]12)c1ccc(F)cc1` [Compound 314, N-(((1R,3s,5S,6r)-3-(5,6-difluoro-1H-benzo[d]imidazol-1-yl)bicyclo[3.1.0]hexan-6-yl)methyl)-4-fluorobenzamide], the IC50 is < 200 nM.

Turning to `O=C(NC[C@@H]1[C@H]2C[C@H](n3cnc4cc(F)c(F)cc43)C[C@@H]12)c1ccc(Cl)c(F)c1` [Compound 315, 4-chloro-N-(((1R,3s,5S,6r)-3-(5,6-difluoro-1H-benzo[d]imidazol-1-yl)bicyclo[3.1.0]hexan-6-yl)methyl)-3-fluorobenzamide], the IC50 was < 200 nM.

As for `O=C(NC[C@@H]1[C@H]2C[C@H](n3cnc4cc(F)c(F)cc43)C[C@@H]12)c1cccc(Cl)c1` [Compound 316, 3-chloro-N-(((1R,3s,5S,6r)-3-(5,6-difluoro-1H-benzo[d]imidazol-1-yl)bicyclo[3.1.0]hexan-6-yl)methyl)benzamide], the IC50 was 200 to 2000 nM.

In the case of `Cc1ccc(C(=O)NC[C@@H]2[C@H]3C[C@H](n4cnc5cc(F)c(F)cc54)C[C@@H]23)cn1` [Compound 317, N-(((1R,3s,5S,6r)-3-(5,6-difluoro-1H-benzo[d]imidazol-1-yl)bicyclo[3.1.0]hexan-6-yl)methyl)-6-methylnicotinamide], the IC50 lay in the range of 200 to 2000 nM.

Consider `COc1ccc(C(=O)NC[C@@H]2[C@H]3C[C@H](n4cnc5cc(F)c(F)cc54)C[C@@H]23)cn1` [Compound 318, N-(((1R,3s,5S,6r)-3-(5,6-difluoro-1H-benzo[d]imidazol-1-yl)bicyclo[3.1.0]hexan-6-yl)methyl)-6-methoxynicotinamide], for which the IC50 was 200 to 2000 nM.

As to `Cn1cc(C(=O)NC[C@@H]2[C@H]3C[C@H](n4cnc5cc(F)c(F)cc54)C[C@@H]23)cn1` [Compound 319, N-(((1R,3s,5S,6r)-3-(5,6-difluoro-1H-benzo[d]imidazol-1-yl)bicyclo[3.1.0]hexan-6-yl)methyl)-1-methyl-1H-pyrazole-4-carboxamide], the IC50 was > 5000 nM.

`O=C(NC[C@@H]1[C@H]2C[C@H](n3cnc4cc(F)c(F)cc43)C[C@@H]12)c1cccc(F)c1` [Compound 320, N-(((1R,3s,5S,6r)-3-(5,6-difluoro-1H-benzo[d]imidazol-1-yl)bicyclo[3.1.0]hexan-6-yl)methyl)-3-fluorobenzamide] gave an IC50 of 200 to 2000 nM.

On to `N#Cc1cccc(C(=O)NC[C@@H]2[C@H]3C[C@H](n4cnc5cc(F)c(F)cc54)C[C@@H]23)c1` [Compound 321, 3-cyano-N-(((1R,3s,5S,6r)-3-(5,6-difluoro-1H-benzo[d]imidazol-1-yl)bicyclo[3.1.0]hexan-6-yl)methyl)benzamide], for which the IC50 is 200 to 2000 nM.

As for `Cc1ccc(C(=O)NC[C@@H]2[C@H]3C[C@H](n4cnc5cc(F)c(F)cc54)C[C@@H]23)cc1` [Compound 322, N-(((1R,3s,5S,6r)-3-(5,6-difluoro-1H-benzo[d]imidazol-1-yl)bicyclo[3.1.0]hexan-6-yl)methyl)-4-methylbenzamide], the IC50 is < 200 nM.

In turn, `Cc1cccc(C(=O)NC[C@@H]2[C@H]3C[C@H](n4cnc5cc(F)c(F)cc54)C[C@@H]23)c1` [Compound 323, N-(((1R,3s,5S,6r)-3-(5,6-difluoro-1H-benzo[d]imidazol-1-yl)bicyclo[3.1.0]hexan-6-yl)methyl)-3-methylbenzamide] returned an IC50 of 200 to 2000 nM.
